Measurements reported in patent US20050277107A1, “Systems and methods for cell preservation” (priority 2002, published 2005).

Legend:
[1] = tested on: human fibroblast cells (HFF1 cells); test: Cell viability after vacuum desiccation and rehydration on cell adhesion surfaces; type: cell-based; settings: dried on standard tissue culture surfaces to about 20% moisture, post-rehydration on coated surface (Tissue Dried)
Experimental: In this set of experiments, human fibroblast cells (HFF1 cells) were desiccated under vacuum at room temperature on various surfaces, and in some cases, in the presence of 0.2 M extracellular trehalose. The fibroblasts were dried to about 20% moisture content. The fibroblasts were then recovered by rehydrating them, placing them into culture, and assessing their viability about 24 hours later, using techniques similar to those described in Example 1.

[2] = tested on: NIH 3T3 murine fibroblasts; test: Post-rehydration cell growth (percentage of viable cells versus undried controls after overnight culture); type: cell-based
Experimental: (§1) NIH 3T3 murine fibroblasts were cultured in Dulbecco's Modified Eagle's medium (DMEM) supplemented with 10% v/v bovine calf serum and 1% v/v penicillin-streptomycin at 37° C. with 10% CO2 in air. At 70% confluence, the cells were trypsinized and resuspended in culture medium. 20 microliter droplets of cells were plated onto sterile 12 mm circular glass cover slips and cultured for 30 min at 37° C. to allow for loose attachment of the fibroblasts to the cover slip. In some cases, poly-L-lysine-coated cover slips were used for attaching the cells to the cover slips. The cover slips were precoated with poly-L-lysine to assure uniform surface characteristics as follows. The cover slips were first prepared by soaking them in aqua regia overnight. The next day, the cover slips were rinsed in 50 mM NaHCO3, then in de-ionized H2O. The cover slips were then baked for at least 3 h at 150° C. The cover slips were removed from the oven and floated in a 1 mg/ml solution of poly-L-lysine for 5 min on each side, then rinsed in de-ionized H2O and air-dried.
Trehalose was inserted into the fibroblasts as follows. The fibroblasts were washed with 30 microliters of a HEPES-buffered saline solution supplemented with EDTA, followed by three washes with 30 microliters of RPMI-1640. The cells were then porated by exposure to an RPMI-1640 solution containing 25 micrograms/ml of a pore-forming protein, H5 alpha-hemolysin, for 10 min. Intracellular trehalose was inserted into the porated cells by exposure to either a hypertonic (RPMI-1640+0.2 M trehalose; 528 mOsm/kg) or an isotonic (RPMI-1640 diluted in H2O+0.2 M trehalose; 310 mOsm/kg) trehalose solution for 45 min. The pores created by H5 alpha-hemolysin in the fibroblasts were closed by adding 25 micromolar ZnSO4 to the solution. The fibroblasts were then washed in an (H5-free) hypertonic or an isotonic trehalose solution. The osmolality of the solution was measured using a freezing-point depression osmometer. […]
(§2) Techniques used in these experiments for drying cells included evaporative drying (using natural convection) or forced laminar convective flow. […] The moisture content of each droplet was determined gravimetrically from the difference in the droplet weight before and after drying, and was expressed as a percentage of anhydrous dry weight. Anhydrous dry weights were determined by baking a representative droplet overnight at 110° C. and measuring the droplet weights. […] The cells within the droplet were then cultured overnight (˜18 h) and assessed for viability.
Following overnight culture, the percentage of viable cells in droplets that were dried and then recovered, compared to undried controls, was used as a measure of cell growth. Viable fibroblasts could be readily identified through their flattening, migratory, and mitotic behavior. […]

[3] = Glass transition temperature of extracellular trehalose solution (modulated temperature DSC); type: physicochemical; settings: after 18 h of dried storage at 4° C.
Experimental: Thus, the extracellular trehalose solution had vitrified by 18 h. After vitrification (glass formation) of the solution containing the cells had occurred, the cells were able to retain their plasma membrane integrities, even after days to weeks in storage at relatively cooler storage temperatures.

[4] = tested on: NIH 3T3 murine fibroblasts; test: Post-rehydration plasma membrane integrity (SYTO 13/ethidium bromide dual fluorescent assay) of dried cells; type: cell-based; settings: for moisture content above which membrane integrity remained relatively stable: hypertonic (528 mOsm/kg) 0.2 M trehalose
Experimental: as §1
Trehalose was inserted into the fibroblasts as follows. The fibroblasts were washed with 30 microliters of a HEPES-buffered saline solution supplemented with EDTA, followed by three washes with 30 microliters of RPMI-1640. The cells were then porated by exposure to an RPMI-1640 solution containing 25 micrograms/ml of a pore-forming protein, H5 alpha-hemolysin, for 10 min. Intracellular trehalose was inserted into the porated cells by exposure to either a hypertonic (RPMI-1640+0.2 M trehalose; 528 mOsm/kg) or an isotonic (RPMI-1640 diluted in H2O+0.2 M trehalose; 310 mOsm/kg) trehalose solution for 45 min. The pores created by H5 alpha-hemolysin in the fibroblasts were closed by adding 25 micromolar ZnSO4 to the solution. The fibroblasts were then washed in an (H5-free) hypertonic or an isotonic trehalose solution. The osmolality of the solution was measured using a freezing-point depression osmometer. All experimental manipulations were performed at room temperature, unless otherwise indicated.
as §2, with “flow. The natural convection protocol is generally as follows. The approximate pre-desiccation dimensions of the 20 microliter droplet of media containing the fibroblasts on the glass cover slip was 6 mm diameter×1 mm height. The cover slips were placed in airtight acrylic boxes containing CaSO4/CoCl2 desiccant. The cover slips were stored there for different lengths of time, typically ranging from a few hours to several weeks.” for “flow.”
The integrity of the plasma membrane of the cells after rehydration was determined using a dual fluorescent assay as follows. […] The cells were imaged on a fluorescent microscope and analyzed. The membrane integrity (MI) for the cells was calculated as the percentage of SYTO® 13-positive cells in the sample. […]

[5] = tested on: 3T3 fibroblasts; test: Long-term stability of membrane integrity during dried storage (exponential decay curve fit); type: cell-based, murine; settings: 0.4 M intracellular trehalose
Experimental: The integrity of the plasma membrane of the cells after rehydration was determined using a dual fluorescent assay as follows. SYTO® 13 (Molecular Probes, Inc. Eugene, Oreg.), a permeant live cell nucleic acid dye (25 micromolar), and ethidium bromide (EB; 25 micromolar) were used to differentially stain the cells. The cells were imaged on a fluorescent microscope and analyzed. The membrane integrity (MI) for the cells was calculated as the percentage of SYTO® 13-positive cells in the sample.
The membrane integrity of 3T3 fibroblasts loaded with 0.4 M trehalose intracellularly was measured for periods of time extending out to several weeks (FIG. 5). The fibroblasts were prepared using methods similar to those described in Example 1. The data in FIG. 5 represents experiments where cells were removed from storage, rehydrated, analyzed, and then discarded. The cells were stored at temperatures of −80° C., −20° C., 4° C., 25° C., and 37° C., over CaSO4 desiccant (about 5% relative humidity). The 0.4 M trehalose condition was chosen in this example since previous experiments had shown that cells containing 0.4 M trehalose had high MI values after overnight storage.
Thus, the rate at which the membrane integrity decays appears to be a function of the storage temperature.

Molecule: collagen
- cell viability about 24 hours after rehydration [1]: Increases in cell viability

Molecule: laminin
- cell viability about 24 hours after rehydration [1]: Increases in cell viability

Molecule: fibronectin
- cell viability about 24 hours after rehydration [1]: Increases in cell viability

Molecule: OC[C@H]1O[C@H](O[C@H]2O[C@H](CO)[C@@H](O)[C@H](O)[C@H]2O)[C@H](O)[C@@H](O)[C@@H]1O [trehalose]
- percentage of cell growth, isotonic intracellular and extracellular trehalose versus isotonic extracellular trehalose only ([2]; dried to about 10% moisture content, p=0.004): significant improvement
- cells viable (cell growth) following drying ([2]; hypertonic trehalose solutions, dried to about 10% moisture content): Less than 20%
- percentage of cell growth ([2]; isotonic 0.2 M extracellular trehalose only, dried to 10% moisture content): less than 30%
- cells capable of growth after recovery and overnight culture ([2]; isotonic 0.2 M intracellular and extracellular trehalose, moisture contents greater than about 10%): Approximately 80%
- glass transition temperature of the extracellular trehalose [3]: 5 to 10 °C
- moisture content above which membrane integrity remained relatively stable ([4]; extracellular trehalose only): greater than 15%
- moisture content above which membrane integrity remained relatively stable ([4]; intracellular and extracellular trehalose): greater than 10%
- membrane integrity (MI) after drying, internal plus external trehalose versus no internal trehalose ([4]; hypertonic solution): higher MI values
- moisture content below which gross membrane damage was observed ([4]; isotonic (310 mOsm/kg) solutions of 0.2 M trehalose): 5-8%
- intact cells (membrane integrity) ([4]; isotonic trehalose solutions, moisture contents as low as 5-8%): about 80%
- decay time constant of membrane integrity ([5]; storage at 4° C. over CaSO4 desiccant): 54 days
- decay time constant of membrane integrity ([5]; storage at 25° C. over CaSO4 desiccant): 7.5 days
- decay time constant of membrane integrity ([5]; storage at 37° C. over CaSO4 desiccant): 2.0 days
- decay time constant of membrane integrity ([5]; storage at -20° C. over CaSO4 desiccant): 138 days
- decay time constant of membrane integrity ([5]; storage at -80° C. over CaSO4 desiccant): 147 days
